From patent US11440939B2, “Anticancer peptides” (IDP DISCOVERY PHARMA, S.L., priority 2017, dated 2022) come the findings set out here.

For this experiment, the system named is GBM-27. In kind it is cell-based. On the procedure: GMB-27, epithelial (glioblastoma, GMB), from surgical specimens from patients;
Cell line MCF-7 was cultured in incubator under CO2 (6%) at 37° C. in DMEM high glucose (Dulbecco's Modified Eagle Solution, Gibco-BRL 31966-21) medium with 10% fetal bovine serum inactivated (FBS) (Gibco-BRL 10106-169). Cell lines HL-60, NCI-H524, NCI-H526, NCI-H69, NCI-H82, NCI-H187 and H5B were cultured in an incubator at 37° C. in RPMI-1640 (Sigma R8758) medium with 10% of fetal bovine serum inactivated (FBS) and 2 mM glutamine (Sigma G7513). Cell line NCI-H510A was cultured in incubator in F12K medium with 10% of fetal bovine serum inactivated (FBS). […]
During the amplification step and the assays, adherent cells were rinsed with DPBS (Dulbecco's Phosphate Buffered Saline, Sigma D1283) three times and afterward treated for 5 minutes with trypsin ([…]) (Gibco-BRL, 15400054) in solution of DPBS at 37° C., and, once detached, transferred in the culturing medium. […] Cells were counted in a Neubauer chamber after labelling with Tripan-Blue.
Cells were incubated during 72 h in incubator under CO2 atmosphere at 37° C. Cell viability was measured by means of MTT (3-(4,5-dimethylthiazol-2-yl)-2,5-diphenyltetrazolium bromide) assay, Alamar Blue® (Biosource DAL1100) and Hexosaminidase activity test, consecutively, following manufacturer instructions. […]

Numbered stars: 1 amine (or outer) side, 2 acyl side, 3 side chain; on linkers, the order of the positions; unused ones are H or OH. Bridge positions count the residues as written; N and C are the ends. Square brackets hold non-standard residues; d marks the D form. Peptide text beside a SMILES is read from it. ξ: configuration not given here. ξαMeNle(6-ylidene) = CC(CCCC=[*:3])(N[*:1])C(=O)[*:2]; X1 = CC(CCCCCCC=[*:3])(N[*:1])C(=O)[*:2]

With `CC(C)C[C@H](NC(=O)[C@H](CCCCN)NC(=O)[C@@H](NC(=O)[C@@H](N)CCCNC(=N)N)C(C)C)C(=O)N[C@H](C(=O)N[C@@H](CC(N)=O)C(=O)N[C@@H](CC(C)C)C(=O)NC1(C)CCCCCCC=CCCCC(C)(C(=O)N[C@H](C(=O)N2CCC[C@H]2C(N)=O)C(C)C)NC(=O)[C@H](CCC(=O)O)NC(=O)[C@H](CCCNC(=N)N)NC(=O)[C@H](CC(C)C)NC(=O)[C@H]([C@@H](C)O)NC(=O)[C@H](C)NC(=O)[C@H](Cc2ccccc2)NC1=O)C(C)C` (stereo partly shown) [H14] (H-RVKLVNL[X1]FATLRE[ξαMeNle(6-ylidene)]VP-NH2; staple 8-15; N-terminus and C-terminus assumed), the concentration for a half-maximal effect (EC50) is roughly 5 µM.

The EC50 is the concentration that produces a half-maximal response.
